Data as given in US20120132204A1, “UNIT DOSE DRY POWDER INHALER” (priority 2005, published 2012).

Tests used:
[1] = test system: plasma proteins; details: cited from earlier work
[2] = test system: 5-HT receptor; details: compared within the triptan class; cited from earlier work
[3] = preclinical pharmacology studies; cited from earlier work
[4] = test system: migraine; details: cited from earlier work
[5] = broad dose range of 1 to 100 mg; cited from earlier work
[6] = test system: cytochrome P450 isoenzymes; details: cited from earlier work
[7] = Particle size of spray-dried powder (Predictive Example); assay type: physicochemical; details: spray dried from 10% w/v feedstock
Protocol: A feedstock comprising 10% w/v frovatriptan succinate was fed to an in-house spray-dryer and was spray dried at the following settings: feed rate=2.1 g/min, inlet temp=130° C., outlet temp=66° C., atomisation=2-fluid nozzle, atomisation pressure=2 barg, atomisation air flow rate=21 l/min, drying air pressure=1 barg, drying air flow rate=5 l/sec. A respirable powder of less than 10 microns was produced which could then be administered to a patient in need of rapid relief from a migraine using the unit-dose dry powder inhaler of the invention.

Row | particle size of respirable powder [7] | SMILES | binding to plasma proteins [1] | 5-HT potency [2] | cerebro-selectivity [3] | response rates ([4]; compared with placebo) | headache recurrence rates ([4]; compared within the triptan class) | tolerability [5] | inhibiting or inducing effects on cytochrome P450 isoenzymes [6]
1 |  | CN[C@@H]1CCc2[nH]c3ccc(C(N)=O)cc3c2C1 [Frovatriptan] | only slightly bound | highest 5-HT potency in the triptan class | apparently cerebro-selective | significantly higher response rates compared with placebo | lowest reported range of headache recurrence rates in the triptan class | well-tolerated | no inhibiting or inducing effects
2 | less than 10 microns | CN[C@@H]1CCc2[nH]c3ccc(C(N)=O)cc3c2C1 [frovatriptan succinate] |  |  |  |  |  |  | 
